Measured values from patent US9096605B2, “Pyrazolopyrimidine derivatives as PI3 kinase inhibitors” (GlaxoSmithKline LLC, priority 2011, dated 2015).

Legend:
[1] = system: pAKT(Ser473) in MDA-MB-468 cells; experiment: pAKT(Ser473) assay in MDA-MB-468 cells; format: cell-based; details: Homo sapiens, 0.5 h, compound treatment 30 minutes, MSD ELISA phospho AKT(Ser473), given as ranges, read-out: Cell Activity—pAKT IC50 in MDA-MB-468
Method: pAKT(Ser473) Assay in MDA-MB-468 Cells
MDA-MB-468 cells were plated in 384-well flat clear bottom tissue culture plates (Corning #3701) at a density of 5000 cells per 0.057 cm2 in 48 ul of RPMI 1640 media supplemented with 10% fetal bovine serum (FBS). Cells were seeded with a Wellmate liquid handler (Matrix). Columns 1 through 23 were plated with cells and column 24 contained media alone. Cells were incubated at 37° C. with 5% CO2 for approximately 16-20 hours. Duplicate compound plates were prepared in 384-well polypropylene V-Bottom plates (Greiner #781280).
Compound titrations were made across the columns (A1-A20). 20 ul of compound was added to the first column and diluted into a 20 point curve with dimethylsulfoxide (DMSO, Thermo #TS2064) using a 2-fold dilution factor with a liquid handling robot (Hamilton). Columns 22 through 24 contained DMSO alone. Titrations were diluted 682-fold for compound treatment with 4 ul of compound added to 105 ul of RPMI media. Two ul of the diluted compound was added to the cell plates containing 48 ul of media using a multimek robot (Beckman Coulter). Final DMSO concentrations were 0.15%. Cells were treated with compound for 30 minutes at 37° C. with 5% CO2.
Following incubation, media was aspirated from dosed cell plates using an ELx405 plate washer (Bio-Tek) and 25 ul of 4° C. Meso Scale Discovery (MSD) lysis buffer with the addition of protease and phosphatase inhibitors (supplied in MSD kit #N31CB-1) was added to each well using a multidrop combi (Thermo). Precoated 4-spot per well MSD ELISA plates coated with total and phospho AKT(Ser473) antibody and BSA (supplied in kit) were blocked for 1 hour at room temperature with 35 ul per well of 1× MSD wash buffer+3% BSA (supplied in kit).
Blocked plates were washed 4 times with 100 ul per well of 1× Tris wash buffer (supplied in MSD kit) using an Elx405 plate washer (Bio-Tek). To each well, 20 ul of cell lysate was added using a multimek robot (Beckman Coulter) and the plate incubated at 4° C. overnight (˜12-24 hours). Following incubation, the ELISA plates were washed 4 times (100 ul/well) with 1× Tris wash buffer. Twenty microliters per well of 1× detection antibody (supplied in MSD kit) was added using a multidrop combi (Thermo), followed by a 2 hour incubation at room temperature. Detection antibody was aspirated and the plates washed 4 times (100 ul/well) with 1× Tris wash buffer. Read Buffer (supplied in MSD kit) was added at 1× (35 ul/well) at room temperature using a multidrop (Thermo). Relative luminescence units (RLU) were determined using a SECTOR™ Imager 6000 with MSD Workbench Software.
Concentration Response Curves for pAKT(Ser473):
For analysis of the pAKT(Ser473) concentration response curves, the data was normalized using Phospho AKT values divided by the sum of corresponding Total AKT and Phospho AKT values. The normalized values are plotted as the percent of the DMSO-treated control values on the corresponding plate. To determine IC50 values, the data is fit to a 4 parameter nonlinear sigmoidal dose response (variable slope) using GraphPad Prism version 4 for Windows, (GraphPad Software, San Diego Calif. USA). Criteria for curve fitting and IC50 determination include that the IC50 values from duplicate runs must be within 2 to 3-fold of each other, the Y min must be less than or equal to 30% of the DMSO-treated control and the Y max must range between 80-120%. Any data point equal to or greater than 40% of the curve was not utilized.

PI3K-beta = target: T1, PI3K-beta (Homo sapiens, UniProt P42338); experiment: HTRF in vitro profiling assay for PI3K inhibition (beta isoform); format: biochemical; details: PI3K-beta enzyme pIC50 range, 200 pM enzyme, 100 uM ATP, 10 uM PIP2, 150 mM NaCl, corrected pIC50, read-out: PI3K-b Enz Activity
T1 construct: made in house
T1 sequence (P42338 whole entry, canonical isoform): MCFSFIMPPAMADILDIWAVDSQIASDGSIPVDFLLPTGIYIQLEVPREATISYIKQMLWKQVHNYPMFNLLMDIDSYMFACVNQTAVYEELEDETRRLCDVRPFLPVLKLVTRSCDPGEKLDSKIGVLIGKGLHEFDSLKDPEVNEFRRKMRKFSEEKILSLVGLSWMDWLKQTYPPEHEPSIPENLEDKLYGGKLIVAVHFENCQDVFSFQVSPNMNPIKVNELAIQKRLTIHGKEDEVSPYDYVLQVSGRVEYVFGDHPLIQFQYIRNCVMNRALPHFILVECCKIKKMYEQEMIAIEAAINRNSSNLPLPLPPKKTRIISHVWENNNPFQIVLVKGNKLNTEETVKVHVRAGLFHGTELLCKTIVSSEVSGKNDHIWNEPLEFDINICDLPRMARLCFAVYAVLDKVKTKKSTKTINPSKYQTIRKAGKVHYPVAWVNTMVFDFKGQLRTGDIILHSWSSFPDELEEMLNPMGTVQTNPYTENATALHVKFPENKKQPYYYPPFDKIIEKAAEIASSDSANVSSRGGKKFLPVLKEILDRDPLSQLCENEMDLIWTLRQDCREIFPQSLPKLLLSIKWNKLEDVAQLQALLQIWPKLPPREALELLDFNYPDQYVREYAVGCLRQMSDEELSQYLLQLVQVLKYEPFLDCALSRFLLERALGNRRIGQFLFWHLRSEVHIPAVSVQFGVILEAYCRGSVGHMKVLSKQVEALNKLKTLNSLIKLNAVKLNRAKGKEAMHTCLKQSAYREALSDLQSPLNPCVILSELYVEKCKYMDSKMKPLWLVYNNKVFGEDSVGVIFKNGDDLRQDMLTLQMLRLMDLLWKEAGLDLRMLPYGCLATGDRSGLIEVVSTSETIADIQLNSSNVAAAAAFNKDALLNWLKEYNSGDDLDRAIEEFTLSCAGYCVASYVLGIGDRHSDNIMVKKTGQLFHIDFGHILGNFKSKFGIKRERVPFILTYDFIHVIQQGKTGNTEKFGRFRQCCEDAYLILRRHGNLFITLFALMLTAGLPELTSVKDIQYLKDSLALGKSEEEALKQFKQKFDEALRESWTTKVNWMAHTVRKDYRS
T1 sequence (P27986 whole entry partner, canonical isoform): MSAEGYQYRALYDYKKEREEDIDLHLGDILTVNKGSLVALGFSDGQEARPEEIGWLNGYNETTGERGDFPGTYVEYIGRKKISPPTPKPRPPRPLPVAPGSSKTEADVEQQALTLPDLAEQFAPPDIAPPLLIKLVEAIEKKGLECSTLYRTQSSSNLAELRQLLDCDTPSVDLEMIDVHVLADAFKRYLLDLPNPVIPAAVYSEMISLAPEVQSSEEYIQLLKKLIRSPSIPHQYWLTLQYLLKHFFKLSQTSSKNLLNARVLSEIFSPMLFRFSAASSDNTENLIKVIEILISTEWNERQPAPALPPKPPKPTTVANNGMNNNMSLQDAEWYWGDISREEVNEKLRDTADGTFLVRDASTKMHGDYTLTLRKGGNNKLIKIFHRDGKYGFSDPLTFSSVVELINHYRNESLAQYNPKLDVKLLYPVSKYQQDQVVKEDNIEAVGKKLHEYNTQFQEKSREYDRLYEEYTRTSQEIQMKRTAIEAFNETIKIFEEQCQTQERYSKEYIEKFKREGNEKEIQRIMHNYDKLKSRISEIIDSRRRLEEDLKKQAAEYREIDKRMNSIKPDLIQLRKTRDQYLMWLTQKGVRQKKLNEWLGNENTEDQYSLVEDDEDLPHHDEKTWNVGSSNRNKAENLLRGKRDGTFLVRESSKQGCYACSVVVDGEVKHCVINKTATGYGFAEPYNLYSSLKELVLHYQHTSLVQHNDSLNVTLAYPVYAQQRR
Source text: HTRF In Vitro Profiling Assays for PI3K Inhibition
The PI3-Kinase profiling assays were developed to measure the compound-dependent inhibition of the alpha, beta, delta, and gamma isoforms of PI3K in an in vitro catalytic assay. This assay was developed and optimized from a kit produced by Upstate (Millipore catalog #33-017). Briefly, this procedure utilizes a pre-formed HTRF (Homogeneous Time-Resolved Fluorescence energy transfer) complex between four binding partners: 1) biotinylated PIP3, 2) GST tagged pleckstrin homology (PH) domain, 3) Europium labeled anti-GST monoclonal antibody, and 4) Streptavidin-Allophycocyanin (APC). The native PIP3 produced by PI 3-Kinase activity displaces biotin-PIP3 from the PH domain, resulting in the dissociation of the HTRF complex and a decrease in the fluorescence signal. The format of this assay is the same for all 4 isoforms of PI3K; the differences lie in the concentration of enzyme used to achieve the most robust signal. The alpha and delta assays are run at 400 pM enzyme; the beta assay is at 200 pM enzyme and the gamma assay is run at 1 nM enzyme. In addition, the alpha, beta and delta assays are run with 150 mM NaCl while the gamma assay is run in the absence of NaCl. The ATP concentration is 100 uM in the alpha, beta, and delta assays and 15 uM ATP in the gamma assay. All reactions are run at 10 uM PIP2
Compounds are serially diluted (3-fold in 100% DMSO) across a 384-well polypropylene mother plate from column 1 to column 12 and column 13 to column 24, to yield 11 concentrations for each test compound. Columns 6 and 18 contain only DMSO. Once titrations are made, […] is transferred to a 384-well low-volume assay plate (Greiner 784076). This assay plate contains three pharmacological controls (known PI3K inhibitors) and 3 assay controls: (1) Enzyme without inhibitor; (2) Buffer minus enzyme, and (3) Buffer minus enzyme plus native PIP3. DMSO is stamped into all wells of columns 6 and 18. PIP3 is added at 40 μM in 1× Reaction buffer (1 μL of 200 μM PIP3) to alternating rows of column 18 (wells 18 B, D, F, H, J, L, N, P). The no-enzyme control reactions are run in wells 18 A, C, E, G, I, K, M, O (0.1 μL of 100% DMSO).
The PI3-Kinase profiling assay was optimized using the HTRF kit provided by Upstate (Millipore). The assay kit contains seven reagents: 1) 4× Reaction Buffer; 2) native PIP2 (substrate); 3) Stop A (EDTA); 4) Stop B (Biotin-PIP3); 5) Detection Mix A (Streptavidin-APC); 6) Detection Mix B (Eu-labeled Anti-GST plus GST-tagged PH-domain); 7) Detection Mix C (KF). In addition, the following items were obtained or purchased: PI3Kinase (prepared by GSK BR&AD), dithiothreitol (Sigma, D-5545), Adenosine-5′-triphosphate (ATP, Teknova cat. # A0220), native PIP3 (1,2-dioctanoyl-sn-glycero-3-[phosphoinositil-3,4,5-triphosphate]tetraammonium salt (Avanti polar lipids, 850186P), DMSO (Sigma, 472301).
PI3Kinase Reaction Buffer is prepared by diluting the stock 1:4 with de-ionized water. Freshly prepared DTT is added at a final concentration of 5 mM on the day of use. Enzyme addition and compound pre-incubation are initiated by the addition of 2.5 μL of PI3K (at twice its final concentration) in 1× reaction buffer to all wells using a Multidrop Combi. Plates are incubated at room temperature for 15 minutes. Reactions are initiated by addition of 2.5 μL of 2× substrate solution (PIP2 and ATP in 1× reaction buffer) using a Multidrop Combi. Plates are incubated at room temperature for one hour. Reactions are quenched by the addition of 2.5 μL of stop solution (Stop A and Stop B pre-mixed at a ratio of 5:1, respectively) to all wells using the Multidrop Combi. […]

Row | IC50 [1] [nM] | IC50 (PI3K-beta) [nM] | Structure (SMILES)
1 | > 20000 | 126 to 1260 | Cc1nn2c(O)cc(N3CCOCC3=O)nc2c1Cc1cccc(C(F)(F)F)c1C [Example 3, 4-(7-hydroxy-2-methyl-3-(2-methyl-3-(trifluoromethyl)benzyl)pyrazolo[1,5-a]pyrimidin-5-yl)morpholin-3-one]
2 | > 20000 | 126 to 1260 | Cc1nn2c(C#N)cc(N3CCOCC3)nc2c1Cc1cccc(C(F)(F)F)c1C [Example 45, 2-methyl-3-(2-methyl-3-(trifluoromethyl)benzyl)-5-morpholinopyrazolo[1,5-a]pyrimidine-7-carbonitrile]
3 | < 1000 | 12.6 to 100 | Cc1nn2c(N)cc(N3CCOCC3)nc2c1Cc1cccc(C(F)(F)F)c1C [Example 17, 2-methyl-3-(2-methyl-3-(trifluoromethyl)benzyl)-5-morpholinopyrazolo[1,5-a]pyrimidin-7-amine]
4 | 11000 to 20000 | 1.26 to 10 | Oc1cc(-c2ccncc2)nc2c(Cc3cccc(Cl)c3Cl)c(C(F)(F)F)nn12 [Example 32, 3-(2,3-dichlorobenzyl)-5-(pyridin-4-yl)-2-(trifluoromethyl)pyrazolo[1,5-a]pyrimidin-7-ol]
5 | 1000 to 5000 | 0.126 to 1 | Oc1cc(N2CCOCC2)nc2c(Cc3cccc(Cl)c3Cl)c(C(F)(F)F)nn12 [Example 7, 3-(2,3-dichlorobenzyl)-5-morpholino-2-(trifluoromethyl)pyrazolo[1,5-a]pyrimidin-7-ol]
6 | > 20000 | 126 to 1260 | Oc1nn2c(O)cc(-c3ccncc3)nc2c1Cc1ccccc1Cl [Example 21, 3-(2-chlorobenzyl)-5-(pyridin-4-yl)pyrazolo[1,5-a]pyrimidine-2,7-diol]
7 | 6000 to 10000 | 0.126 to 1 | Cc1nn2c(O)cc(-c3ccncc3)nc2c1Cc1cccc(Cl)c1Cl [Example 30, 3-(2,3-dichlorobenzyl)-2-methyl-5-(pyridin-4-yl)pyrazolo[1,5-a]pyrimidin-7-ol]
8 | < 1000 | 0.126 to 1 | Nc1nn2c(O)cc(N3CCOCC3)nc2c1Cc1cccc2ccccc12 [Example 23, 2-amino-5-morpholino-3-(naphthalen-1-ylmethyl)pyrazolo[1,5-a]pyrimidin-7-ol]
9 | 6000 to 10000 | 12.6 to 100 | Cn1c(=O)c(Cc2cccc(Cl)c2Cl)c2nc(-c3ccncc3)cc(O)n21 [Example 50, 3-(2,3-dichlorobenzyl)-7-hydroxy-1-methyl-5-(pyridin-4-yl)pyrazolo[1,5-a]pyrimidin-2(1H)-one]
10 |  | 126 to 1260 | Cc1nn2c(N3CCOCC3)cc(N3CCOCC3)nc2c1Cc1cccc2ccccc12 [Example 28, 4,4′-(2-methyl-3-(naphthalen-1-ylmethyl)pyrazolo[1,5-a]pyrimidine-5,7-diyl)dimorpholine]
11 |  | 126 to 1260 | Cc1ccccc1Cc1c(C)nn2c(-c3cn[nH]c3)cc(-c3ccncc3)nc12 [Example 49, 2-methyl-3-(2-methylbenzyl)-7-(1H-pyrazol-4-yl)-5-(pyridin-4-yl)pyrazolo[1,5-a]pyrimidine]
12 |  | 126 to 1260 | Cc1nn2c(-n3ccnc3)cc(N3CCOCC3)nc2c1Cc1cccc2ccccc12 [Example 44, 4-(7-(1H-imidazol-1-yl)-2-methyl-3-(naphthalen-1-ylmethyl)pyrazolo[1,5-a]pyrimidin-5-yl)morpholine]
13 |  | 126 to 1260 | CC(=O)Nc1cc(N2CCOCC2)nc2c(Cc3cccc(C(F)(F)F)c3C)c(C)nn12 [Example 18, N-[2-methyl-3-{[2-methyl-3-(trifluoromethyl)phenyl]methyl}-5-(4-morpholinyl)pyrazolo[1,5-a]pyrimidin-7-yl]acetamide]
14 |  | 126 to 1260 | COc1cc(N2CCOCC2)nc2c(Cc3cccc(C(F)(F)F)c3C)cnn12 [Example 12, 4-(7-methoxy-3-(2-methyl-3-(trifluoromethyl)benzyl)pyrazolo[1,5-a]pyrimidin-5-yl)morpholine]
15 |  | 12.6 to 100 | Cc1nn2c(N)cc(-c3ccncc3)nc2c1Cc1cccc(C(F)(F)F)c1C [Example 6, 2-methyl-3-(2-methyl-3-(trifluoromethyl)benzyl)-5-(pyridin-4-yl)pyrazolo[1,5-a]pyrimidin-7-amine]
16 |  | 126 to 1260 | Cc1ccccc1Cc1c(C)n(C)n2c(=O)cc(-c3ccncc3)nc12 [Example 51, 1,2-dimethyl-3-(2-methylbenzyl)-5-(pyridin-4-yl)pyrazolo[1,5-a]pyrimidin-7(1H)-one]
17 |  | 126 to 1260 | Cc1c(Cc2cnn3c(Cl)cc(N4CCOCC4)nc23)cccc1C(F)(F)F [Example 10, 4-(7-chloro-3-(2-methyl-3-(trifluoromethyl)benzyl)pyrazolo[1,5-a]pyrimidin-5-yl)morpholine]
18 |  | 126 to 1260 | COc1cc(-c2ccncc2)nc2c(Cc3cccc(Cl)c3Cl)c(C)nn12 [Example 34, 3-(2,3-dichlorobenzyl)-7-methoxy-2-methyl-5-(pyridin-4-yl)pyrazolo[1,5-a]pyrimidine]
